Five molecules from ChEMBL document CHEMBL1154283, “Chrotacumines A-D, chromone alkaloids from Dysoxylum acutangulum” (J Nat Prod, 2009) can be followed below.

SMILES strings stand for the structures.

What all share (assay type): functional, cell-based
Experiment [1] concerns HL-60. Nature of the experiment: Cytotoxicity against human HL60 cells after 48 hrs by MTT assay. Particulars: HL-60, 48 h.
Experiment [2] deals with HCT-116. Nature of the experiment: Cytotoxicity against human HCT116 cells after 48 hrs by MTT assay. Particulars: HCT-116, 48 h.
Experiment [3] deals with NCI-H226. As to the kind of experiment: Cytotoxicity against human NCI-H226 cells after 48 hrs by MTT assay. Conditions: NCI-H226, 48 h.
In experiment [4] the test system is MCF7. Nature of the experiment: Cytotoxicity against human MCF7 cells after 48 hrs by MTT assay. Particulars: MCF7, 48 h.
The test system of experiment [5] is A549. Nature of the experiment: Cytotoxicity against human A549 cells after 48 hrs by MTT assay. Conditions: A549, 48 h.

`Cc1cc(=O)c2c(O)cc3c(c2o1)[C@@H]1C[C@H](O3)N(C)C[C@H]1OC(=O)c1ccccc1` [CHROTACUMINE A]: in experiment [1], the concentration for half-maximal inhibition (IC50) is over 10 µM. In turn, `C/C=C(\C)C(=O)O[C@@H]1CN(C)CC[C@@H]1c1c(O)cc(O)c2c(=O)cc(C)oc12` [CHROTACUMINE B] came in with a concentration for half-maximal inhibition (IC50) in experiment [1] of over 10 µM. In experiment [1], `COc1cc(C(=O)O[C@@H]2CN(C)CC[C@@H]2c2c(O)cc(O)c3c(=O)cc(C)oc23)cc(OC)c1OC` [CHROTACUMINE C] displayed an IC50 of over 10 µM.

Molecule `COc1ccc(C(=O)O[C@@H]2CN(C)CC[C@@H]2c2c(O)cc(O)c3c(=O)cc(C)oc23)cc1OC` [CHROTACUMINE D] came in with an IC50 in experiment [1] of over 10 µM.

On to `Cc1cc(=O)c2c(O)cc(O)c([C@H]3CCN(C)C[C@H]3O)c2o1` [ROHITUKINE], for which the IC50 in experiment [1] was 7.5 µM; in experiment [2] it was 8.8 µM; in experiment [3] it was over 10 µM; in experiment [4], over 10 µM; in experiment [5], over 10 µM.
